Assay results published in patent EP1322622B1, “NEW N, N'-DISUBSTITUTED BENZIMIDAZOLONE DERIVATIVES WITH AFFINITY AT THE SEROTONIN AND DOPAMINE RECEPTORS” (Sprout Pharmaceuticals, Inc., priority 2000, dated 2002).
Where two headings read alike, the source gives them in different places.

Columns and labels:
CHO/5-HT1A cells = target: T1, CHO/5-HT1A cells (Homo sapiens, UniProt P08908); experiment: 5-HT1A Functional assay (cAMP); assay type: cell-based; conditions: 10 µM compound; % inhibition of the cAMP accumulation induced by 10 µM FSK; read-out: 5-HT1A cAMP % inhib.
T1 construct: expressed in transfected cells; host or cells: CHO/5-HT1A cells
T1 sequence (P08908 1-422): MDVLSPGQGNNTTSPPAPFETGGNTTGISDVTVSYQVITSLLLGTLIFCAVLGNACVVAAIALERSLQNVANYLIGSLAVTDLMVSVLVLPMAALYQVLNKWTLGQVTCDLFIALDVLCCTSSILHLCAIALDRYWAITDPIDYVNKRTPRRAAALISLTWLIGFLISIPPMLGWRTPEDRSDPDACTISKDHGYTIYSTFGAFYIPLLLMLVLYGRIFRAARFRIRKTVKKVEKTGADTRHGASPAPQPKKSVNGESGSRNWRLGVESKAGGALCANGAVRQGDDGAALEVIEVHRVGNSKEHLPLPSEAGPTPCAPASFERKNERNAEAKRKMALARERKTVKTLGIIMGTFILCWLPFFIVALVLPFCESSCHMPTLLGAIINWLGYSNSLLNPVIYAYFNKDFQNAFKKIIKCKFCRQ
Experimental: CHO/5-HT1A cells were random seeded at a density of about 200,000/well in 24 well plates the day prior to the experiment. On the day of the experiment, cells were pretreated for 15 min at 37 °C with 500 µM isobuthylmethylxantine (IBMX) dissolved in culture medium without serum. Wells were then divided in different groups in duplicate as follows: control, 10 µM FSK, 10 µM FSK + 1 µM 5-HT as positive standard and 10 µM FSK + 10 µM of the different compound under evaluation. Sample solutions were added and incubated for additional 15 min at 37 °C. After incubation, medium was aspirated and the reaction stopped by adding 200 µl of lysis buffer. Plates were shaken for 5 min, then the lysate was removed and samples were stored at 4 °C until the day of the assay. For the cAMP evaluation, samples were properly diluted and the cAMP content was measured by an enzymeimmunoassay system.

D4 human receptors = target: T2, D4 human receptors (Homo sapiens, UniProt P21917); experiment: D4 Radioligand Receptor Binding Assay ([3H] YM-09151-2, CHO cell membranes); conditions: compound at 10^-7 M, singlicate; [3H] YM-09151-2 0.15-0.25 nM; read-out: D4 receptor binding assay % inhib. (10^-7 M)
T2 construct: expressed in transfected cells; host or cells: CHO cells
T2 sequence (P21917 1-419): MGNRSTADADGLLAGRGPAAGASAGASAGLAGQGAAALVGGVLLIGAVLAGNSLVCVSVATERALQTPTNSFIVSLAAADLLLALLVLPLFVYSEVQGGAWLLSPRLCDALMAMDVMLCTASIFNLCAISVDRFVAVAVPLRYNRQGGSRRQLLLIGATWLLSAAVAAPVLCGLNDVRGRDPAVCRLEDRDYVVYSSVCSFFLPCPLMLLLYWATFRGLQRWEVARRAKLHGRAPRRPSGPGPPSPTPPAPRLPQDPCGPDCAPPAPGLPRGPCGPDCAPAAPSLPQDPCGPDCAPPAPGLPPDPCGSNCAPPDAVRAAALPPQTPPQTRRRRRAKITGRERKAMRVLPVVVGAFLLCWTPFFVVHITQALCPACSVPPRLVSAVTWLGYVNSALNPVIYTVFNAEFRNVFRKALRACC
Experimental: Membranes from CHO cells, expressing D4 human receptors were suspended in incubation buffer.
Binding assays were performed in MultiProbe 204 pipetting system (Packard), according to a predetermined mapping, consistent with the software Screen. The compounds were tested in singlicate at one concentration (10^-7 M) in a total volume of 1000 µl (980 µl of diluted membranes, 10 µl DMSO or unlabelled ligand and 10 µl of [^3H] YM-09151-2 (0.15-0.25 nM). After incubation for 120 min at 27 °C, the reaction was stopped by rapid filtration through Tomtec cell Harvester (48 wells) using Filtermat B (presoaked in 0.1% PEI) filters. Filters were washed with ice-cold 50 mM Tris-HCl (pH 7.4) buffer (9 x 700 µl), dryed, covered with MeltiLex B/HS (Wallac) scintillator sheets and heated in oven at 80-90 °C for about 10 min, transferred into plastic sample bags (Wallac), sealed and put into 1024 Beta Plate scintillation counter (Wallac). Non specific binding was determined in the presence of clozapine dissolved in DMSO to a final concentration of 10^-5 M.
(§1) The specific radioligand binding to the receptor was defined by the difference between total binding and non specific binding, determined in the presence of an excess of unlabelled ligand. Results were expressed as percentage of control specific binding obtained in the presence of the compounds.

5-HT1A human receptors = target: T3, 5-HT1A human receptors (Homo sapiens, UniProt P08908); experiment: 5-HT1A Radioligand Receptor Binding Assay ([3H]-8-OH-DPAT, CHO cell membranes); conditions: for inhibition at 0.1 µM: compound at 10^-7 M, singlicate, [3H]-8-OH-DPAT 0.6-0.7 nM, read-out: 5-HT1A receptor binding assay % inhib. (10^-7 M)
T3 construct: expressed in transfected cells; host or cells: CHO cells
T3 sequence (P08908 1-422): T1 sequence (P08908 1-422)
Experimental: Membranes from CHO cells, expressing 5-HT1A human receptors were suspended in incubation buffer.
The compounds were tested in singlicate at one concentration (10^-7 M) in a total volume of 1000 µl. 980 µl of diluted membranes, 10 µl DMSO or unlabelled ligand and 10 µl of [^3H]-8-OH-DPAT (0.6-0.7 nM) were incubated for 60 min at 27 °C. The reaction was stopped by rapid filtration through Tomtec cell Harvester (48 wells) using Filtermat B (presoaked in 0.1% PEI) filters. […] Non specific binding was determined in the presence of 5-HT (10^-5 M).
as §1
(§2) The affinity values (IC50) for the compounds were obtained by a non linear least squares regression analysis on the basis of a one binding site model.

5-HT2A = target: T4, 5-HT2A (Rattus norvegicus, UniProt P14842); experiment: 5HT2A Radioligand Receptor Binding Assay ([3H]-Ketanserin, cerebral frontal cortex membranes); parameters: species or system Rats; conditions: 0.5 nM [3H]-Ketanserin
T4 construct: Cerebral frontal cortex was homogenized in 10 volumes of ice cold 0.32 M sucrose; from tissue; host or cells: rat cerebral frontal cortex membranes
T4 sequence (P14842 whole entry): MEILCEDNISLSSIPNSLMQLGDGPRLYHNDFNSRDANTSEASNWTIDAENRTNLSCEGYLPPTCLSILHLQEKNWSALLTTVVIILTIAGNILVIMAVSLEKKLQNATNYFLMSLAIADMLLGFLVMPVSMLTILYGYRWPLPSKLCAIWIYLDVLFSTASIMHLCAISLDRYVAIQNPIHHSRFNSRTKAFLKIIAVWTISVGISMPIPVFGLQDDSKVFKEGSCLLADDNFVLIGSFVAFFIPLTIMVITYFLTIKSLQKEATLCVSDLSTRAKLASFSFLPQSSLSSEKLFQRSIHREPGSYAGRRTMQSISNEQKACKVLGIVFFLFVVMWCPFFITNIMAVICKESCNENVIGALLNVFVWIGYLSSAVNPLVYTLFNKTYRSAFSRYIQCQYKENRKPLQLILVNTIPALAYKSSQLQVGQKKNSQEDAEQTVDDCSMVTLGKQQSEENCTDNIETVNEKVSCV
Experimental: Rats (male Sprague-Dawley, 200-250 g) were used. Cerebral frontal cortex was homogenized in 10 volumes of ice cold 0.32 M sucrose in 5 mM Tris-HCl ([…]) buffer. After centrifugation of the homogenate (1,000 x g for 10 min) the supernatant was then recentrifuged at 48,000x g for 15 min.The resulting pellet was gently homogenized in an equal volume of 50mM Tris-HCl buffer (pH 7.4) and incubated at 37° C for 10 minutes. Membranes were then collected by centrifugation as above described and finally resuspended in 10 volumes of 50mM Tris-HCl buffer (pH 7.4).
For displacement experiments membranes (980 µl) were diluted in 50 mM Tris-HCl buffer (pH 7.4) to a final concentration of 1:100 (w/v); the tissue suspension was then incubated at 37 °C for 10 min in a final volume of 1 ml in the presence of 0.5 nM [^3H]-Ketanserin. Non specific binding was determined by incubating similar samples with unlabelled methysergide (100 µM). […] The filters were washed three times with 2 ml ice-cold Tris-HCl buffer and placed in polyethylene vials, then 4 ml of Filter Count scintillation cocktail (Packard) were added. The radioactivity present was counted by liquid scintillation spectrometry.
as §2

[1] = [3H]-8-OH-DPAT displacement, CHO membranes, read-out: 5-HT1A receptor binding IC50

Compound | inhibition at 10 µM (CHO/5-HT1A cells) [%] | inhibition at 0.1 µM (D4 human receptors) [%] | IC50 (5-HT1A human receptors; [1]) [nM] | inhibition at 0.1 µM (5-HT1A human receptors) [%] | IC50 (5-HT2A) [nM] | IC50 (5-HT1A human receptors) [nM]
COCCn1c(=O)n(CCCCN2CCN(c3cccc(Cl)c3)CC2)c2ccccc21 [compound 5] | 63 | 54 | 13 | 92 |  | 
COCCn1c(=O)n(CCCCN2CCN(c3cccc(C(F)(F)F)c3)CC2)c2ccccc21 [compound 9] | 48 | 32 | 9.9 | 93 | 16 | 
Cc1cccc(N2CCN(CCCCn3c(=O)n(CCN4CCCCC4)c4ccccc43)CC2)c1C [compound 37] | 44 | 54 | 16 | 90 |  | 
O=c1n(CCO)c2ccccc2n1CCCCN1CCN(c2cccc(Cl)c2)CC1 [compound 60] | 65 | 82 | 6.2 | 93 |  | 
O=c1n(CCO)c2ccccc2n1CCCCN1CCN(c2cccc(C(F)(F)F)c2)CC1 [compound 64] | 52 | 43 |  | 92 |  | 12
Cc1cccc(N2CCN(CCCCn3c(=O)n(CCO)c4ccccc43)CC2)c1C [compound 73] | 45 | 58 | 13 | 91 | 0.9 | 
CCNC(=O)OCCn1c(=O)n(CCCCN2CCN(c3cccc(C(F)(F)F)c3)CC2)c2ccccc21 [compound 83] | 64 | 39 | 15 | 89 | 43 | 
Cc1cccc(N2CCN(CCn3c(=O)n(CCN4CCCCC4)c4ccccc43)CC2)c1C [compound 158] | 48 | 72 | 13 | 95 |  | 
COCCn1c(=O)n(CCN2CCN(c3cccc(Cl)c3)CC2)c2ccccc21 [compound 164] | 73 | 41 | 4.2 | 96 |  | 
COCCn1c(=O)n(CCN2CCN(c3cccc(C(F)(F)F)c3)CC2)c2ccccc21 [compound 168] | 71 |  | 5 |  | 46 | 
COCCn1c(=O)n(CCN2CCN(c3cccc(C)c3C)CC2)c2ccccc21 [compound 177] | 76 |  | 3.3 | 98 | 7.7 | 
O=c1n(CCO)c2ccccc2n1CCN1CCN(c2cccc(C(F)(F)F)c2)CC1 [compound 187] | 44 | 36 | 8.2 | 94 |  | 
CCNC(=O)OCCn1c(=O)n(CCN2CCN(c3cccc(C(F)(F)F)c3)CC2)c2ccccc21 [compound 206] | 80 |  | 2.1 |  | 17 | 
CCNC(=O)OCCn1c(=O)n(CCN2CCN(c3ccccc3Cl)CC2)c2ccccc21 [compound 219] | 61 | 37 | 15 | 89 |  | 
O=c1n(C/C=C\CN2CCN(c3ccccc3)CC2)c2ccccc2n1CCN1CCCCC1 [compound 310] | 63 | 49 |  | 85 |  | 
O=c1n(C/C=C\CN2CCN(c3cccc(C(F)(F)F)c3)CC2)c2ccccc2n1CCN1CCCCC1 [compound 318] | 61 | 36 |  | 92 |  | 
O=c1n(C/C=C/CN2CCN(c3ccccn3)CC2)c2ccccc2n1CCN1CCCCC1 [compound 330] | 62 | 84 |  | 97 |  | 
O=c1n(C/C=C/CN2CCc3c([nH]c4ccccc34)C2)c2ccccc2n1CCN1CCCCC1 [compound 333] | 67 | 80 |  | 99 |  | 
O=c1n(C/C=C/CN2CCN(c3cccc(C(F)(F)F)c3)CC2)c2ccccc2n1CCN1CCCCC1 [compound 335] | 69 | 55 | 3.5 | 95 |  | 
O=c1n(C/C=C\CN2CCN(c3cccc(C(F)(F)F)c3)CC2)c2ccccc2n1CCO [compound 369] | 84 | 59 |  | 96 |  | 
O=c1n(C/C=C\CN2CC=C(c3ccccc3)CC2)c2ccccc2n1CCO [compound 370] | 52 | 60 |  | 93 |  | 
CCNC(=O)OCCn1c(=O)n(CC=CCN2CC=C(c3ccccc3)CC2)c2ccccc21 [compound 404] | 60 | 34 |  | 95 |  | 
CCNC(=O)OCCn1c(=O)n(C/C=C/CN2CCN(c3cccc(Cl)c3)CC2)c2ccccc21 [compound 416] | 77 | 39 |  | 96 |  | 
CC(=O)NCCn1c(=O)n(CCN2CCN(c3cccc(C)c3C)CC2)c2ccccc21 [compound 446] | 81 | 31 | 7.3 | 92 |  | 
CS(=O)(=O)NCCn1c(=O)n(C/C=C\CN2CC=C(c3ccccc3)CC2)c2ccccc21 [compound 504] | 50 | 34 |  | 93 |  | 
